Source: US7951232B2, “Surface coating compositions and methods” (Elevance Renewable Sciences, Inc., priority 2006, dated 2011)

System: Pseudomonas aeruginosa ATCC 15442
Experiment: MIC and MBC determination in Mueller-Hinton Broth
Type: cell-based
Settings: no-growth tubes subcultured on TSA, 37±2° C., 20-24 hours
Experimental: Efficacy of 9-decenoic acid and the methyl ester of 9-decenoic acid against Pseudomonas aeruginosa ATCC 15442, Escherichia coli 0157:H7 ATCC 43895 and Candida albicans ATCC 10231 was measured through the determination of the minimum inhibitory concentration (MIC) and minimum bacteriocidal concentration (MBC) using the procedures in the Federal Register, June 1994 and the present NCCLS M11-A4 protocol.
Stock cultures of each organism were transferred onto Mueller-Hinton Agar (MHA) plates and incubated for 24±2 hours at 37±2° C. On the day of the test, the top of at least three to five well-isolated colonies were transferred via wire loop to a tube containing 4 to 5 ml of Trypticase Soy Broth (TSB). The TSB culture was incubated for 2 to 6 hours and turbidity was adjusted with sterile saline to achieve the turbidity of the 0.5 McFarland Standard.
The concentrated 9-decenoic acid was diluted 1:40 in Mueller-Hinton Broth (MHB) to yield a 2.5% stock solution. The test solution of the methyl ester of 9-decenoic acid was formulated in the same manner. For each organism, 12 dilutions of the 9-decenoic acid and the methyl ester of 9-decenoic acid in MHB were prepared ranging from 0.2500 to 0.0005%. A 2-ml aliquot of appropriately diluted 9-decenoic acid or the methyl ester of 9-decenoic acid solution was placed in each tube. Each tube was inoculated with 0.05 ml of a 1:10 dilution of one challenge organism. Tubes were incubated at 37±2° C. for 20-24 hours and observed for growth or no growth. […] Controls were run for sterility, viability and organism confirmation. It was determined that all cultures were viable and pure.
The MBC was defined as the concentration of 9-decenoic acid or the methyl ester of 9-decenoic acid that completely eradicated viable organisms from the test system.

Question: With `C=CCCCCCCCC(=O)O` [9-decenoic acid] as the compound, how does the MBC read?
Answer: 0.1250%
